Reference: patent publication US20080221115A1, “Use of long-chain alcohol derivatives for the treatment of alopecia areata” (priority 2007, published 2008)

How the values were obtained:
[1] = tested on: alopecia greata in C3H/HeJ mice; conditions: for effective in treating the alopecia greata in C3H/HeJ mice: conclusion in words from Example 1; for Average score: hair amount and hair growth in biopsies from mustache, face, head, neck, back, stomach graded 1 (no hair) to 5 (full growth), averaged per group, day 93, negative control (PBS) 2.48; for Average score / Overall score: 25 mg/ml in PBS, topical; for Overall score: overall appearance graded on a scale of 1 (50% of mouse hairless) to 5 (full hair), group mean, 40 μl per cm^2 lesion, day 93 from the beginning of the treatment, negative control (PBS) 2.7
Method: The young mice will develop the disease subsequent to grafting.
Lesional grafts from old C3H/HeJ mice were grafted onto young C3H/HeJ mice. On day 30-40 post-graft the mice were randomized into groups with approximately the same degree of alopecia greata pathology.
Group 1: negative control, phosphate buffered saline (PBS).
Treatment was initiated on the day of randomization into groups. Mice were treated by providing 40 μl of solution per cm^2 lesion. The solution was evenly spread and was allowed to soak into the skin. Mice were observed twice weekly and the size of patches was measured and documented.
Treatment solutions were prepared freshly each day.
At the end of the study, skin biopsies were evaluated in a blinded manner. The hair amount and hair growth from biopsies from mice mustache, face, head, neck, back, and stomach were graded from 1 to 5. A rating of 1 represented no hair, and a rating of 5 represented full growth. These scores were calculated for each mouse and averaged, and the average for each group is shown below as “average score.”
In addition, the mice were graded based on their overall appearance on a scale of 1 to 5 for “overall score.”
Score 1=50% of mouse hairless.
Score 2=20-40% of mouse hairless.
Score 3=hairless patch covering up to 20% of mouse.
Score 4=thin hair, or local small hairless patch.
There were 7 mice in each of the test compound groups and 5 mice in the negative control group.
The scoring occurred on day 93 from the beginning of the treatment.

[2] = tested on: delayed-type hypersensitivity model in mice; conditions: disclosed in WO 2004/032824; cited from earlier work
[3] = tested on: EAE model in rats; conditions: disclosed in WO 2004/032824; cited from earlier work

Compound: CCCCCCCC/C=C\CCCCCCCCOC(=O)CN1CCNCC1.O=C(O)C(O)C(O)C(=O)O [compound 2]
- effective in treating the alopecia greata in C3H/HeJ mice [1]: effective
- Average score [1]: 2.91
- Overall score [1]: 3.5
- results in a delayed-type hypersensitivity model in mice [2]: positive results
- results in an EAE model in rats [3]: positive results

Compound: CCCCCCCC/C=C\CCCCCCCCOC(=O)C(N)c1ccccc1.Cl (stereo not drawn) [compound 1, amino-phenyl-acetic acid octadec-(Z)-9-enyl ester HCl]
- effective in treating the alopecia greata in C3H/HeJ mice [1]: effective
- Average score [1]: 3.11
- Overall score [1]: 3.5
- results in a delayed-type hypersensitivity model in mice [2]: positive results
